From patent publication US6358885B1, “Substituted phenylheterocyclic herbicides” (Mississippi State University, priority 1992, dated 2002)

Key:
[1] = tested on: barnyardgrass; experiment: Test B preemergence/postemergence greenhouse plant response rating 0 to 10; type: in vivo, Echinochloa crus-galli; conditions: 0 to 10 scale
Method in brief: (§1)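 Both application timings were run together: seeds got compound preemergence, and established seedlings (two to eighteen cm) got it postemergence. Non-phytotoxic solvent carried the chemical. Ratings are visual, versus controls, at twelve to sixteen days.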

[2] = tested on: blackgrass; experiment: as above; type: in vivo, Alopecurus myosuroides; conditions: 0 to 10 scale
Method in brief: as §1

[3] = tested on: crabgrass; experiment: as above; type: in vivo, Digitaria spp.; conditions: 0 to 10 scale
Method in brief: as §1

[4] = tested on: giant foxtail; experiment: as above; type: in vivo, Setaria faberii; conditions: 0 to 10 scale
Method in brief: as §1

[5] = tested on: rape; experiment: as above; type: in vivo, Brassica napus; conditions: 0 to 10 scale
Method in brief: as §1

[6] = tested on: purple nutsedge; experiment: as above; type: in vivo, Cyperus rotundus; conditions: 0 to 10 scale
Method in brief: as §1

[7] = tested on: corn; experiment: Test C preemergence/postemergence greenhouse plant response rating 0 to 100; type: in vivo, Zea mays; conditions: for Plant response rating, Corn: 125 g/ha, 0 to 100 scale
Method in brief: (§2)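 Compounds in non-phytotoxic solvent applied preemergence to sandy loam one day after planting, postemergence at the 1–4 leaf stage, or to ~2.5 cm floodwater over silt loam.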

[8] = tested on: morningglory; experiment: as above; type: in vivo, Ipomoea hederacea; conditions: for Plant response rating, Morningglory: 125 g/ha, 0 to 100 scale
Method in brief: as §2

[9] = tested on: wheat; experiment: as above; type: in vivo, Triticum aestivum; conditions: for Plant response rating, Wheat: 125 g/ha, 0 to 100 scale
Method in brief: as §2

[10] = tested on: wild buckwheat; experiment: as above; type: in vivo, Polygonum convolvulus; conditions: for Plant response rating, Wild buckwheat: 125 g/ha, 0 to 100 scale
Method in brief: as §2

[11] = tested on: wild oat; experiment: as above; type: in vivo, Avena fatua; conditions: for Plant response rating, Wild oat: 125 g/ha, 0 to 100 scale
Method in brief: as §2

[12] = tested on: rice; experiment: Test C flood test plant response rating 0 to 100; type: in vivo, Oryza sativa
From the text: The compounds evaluated in this test were formulated in a non-phytoxic solvent and applied to the soil surface before plant seedlings emerged (preemergence application), to water that covered the soil surface (flood application), and to plants that were in the one-to-four leaf stage (postemergence application). A sandy loam soil was used for the preemergence and postemergence tests, while a silt loam soil was used in the flood test. Water depth was approximately 2.5 cm for the flood test and was maintained at this level for the duration of the test. Plant species in the preemergence and postemergence tests consisted of barley (Hordeum vulgare), bedstraw (Galium aparine), blackgrass (Alopecurus myosuroides), chickweed (Stellaria media), corn (Zea mays), cotton (Gossypium hirsutum), crabgrass (Digitaria sanguinalis), downy brome (Bromus tectorum), giant foxtail (Setaria faberii), lambsquarters (Chenopodium album), morningglory (Ipomoea hederacea), pigweed ([…]), rape (Brassica napus), ryegrass (Lolium multiflorum), sorghum (Sorghum bicolor), soybean (Glycine max), speedwell (Veronica persica), sugar beet (Beta vulgaris), velvetleaf (Abutilon theophrasti), wheat (Triticum aestivum), wild buckwheat (Polygonum convolvulus), and wild oat (Avena fatua). All plant species were planted one day before application of the compound for the preemergence portion-of this test. Plantings of these species were adjusted to produce plants of appropriate size for the post-emergence portion of the test. […] All plant species were grown using normal greenhouse practices. Visual evaluations of injury expressed on treated plants, when compared to untreated controls, were recorded approximately fourteen to twenty one days after application of the test compound. […] A dash (-) response means no test result.

For `Fc1cc(Cl)ccc1-c1nn2c(c1Br)CCCC2` [Compound 52], the “Plant response rating, Barnyardgrass” value ([1]; POSTEMERGENCE, Rate 50 g/ha) was 9, the “Plant response rating, Barnyardgrass” value ([1]; POSTEMERGENCE, Rate 200 g/ha) was 9 and the “Plant response rating, Barnyardgrass” value ([1]; PREEMERGENCE, Rate 50 g/ha) was 5. For the same compound, the “Plant response rating, Barnyardgrass” value ([1]; Rate 200 g/ha, PREEMERGENCE) was 9, the “Plant response rating, Blackgrass” value ([2]; POSTEMERGENCE, Rate 50 g/ha) was 4 and the “Plant response rating, Blackgrass” value ([2]; POSTEMERGENCE, Rate 200 g/ha) was 5. For the same compound, the “Plant response rating, Blackgrass” value ([2]; PREEMERGENCE, Rate 50 g/ha) was 4, the “Plant response rating, Blackgrass” value ([2]; Rate 200 g/ha, PREEMERGENCE) was 6 and the “Plant response rating, Crabgrass” value ([3]; POSTEMERGENCE, Rate 50 g/ha) was 6. The “Plant response rating, Crabgrass” value ([3]; POSTEMERGENCE, Rate 200 g/ha) was 7, the “Plant response rating, Crabgrass” value ([3]; PREEMERGENCE, Rate 50 g/ha) was 2 and the “Plant response rating, Crabgrass” value ([3]; Rate 200 g/ha, PREEMERGENCE) was 10. The “Plant response rating, Giant foxtail” value ([4]; POSTEMERGENCE, Rate 50 g/ha) was 5, the “Plant response rating, Giant foxtail” value ([4]; PREEMERGENCE, Rate 50 g/ha) was 9 and the “Plant response rating, Giant foxtail” value ([4]; Rate 200 g/ha, POSTEMERGENCE) was 7. The “Plant response rating, Giant foxtail” value ([4]; Rate 200 g/ha, PREEMERGENCE) was 10, the “Plant response rating, Rape” value ([5]; POSTEMERGENCE, Rate 50 g/ha) was 8 and the “Plant response rating, Rape” value ([5]; PREEMERGENCE, Rate 50 g/ha) was 1. The “Plant response rating, Rape” value ([5]; Rate 200 g/ha, POSTEMERGENCE) was 10, the “Plant response rating, Rape” value ([5]; Rate 200 g/ha, PREEMERGENCE) was 9 and the “Plant response rating, Nutsedge” value ([6]; POSTEMERGENCE, Rate 50 g/ha) was 3. The “Plant response rating, Nutsedge” value ([6]; PREEMERGENCE, Rate 50 g/ha) was 0, the “Plant response rating, Nutsedge” value ([6]; Rate 200 g/ha, POSTEMERGENCE) was 5 and the “Plant response rating, Nutsedge” value ([6]; Rate 200 g/ha, PREEMERGENCE) was 0. The “Plant response rating, Corn” value ([7]; POSTEMERGENCE) was 50, the “Plant response rating (0 to 100), Corn” value ([7]; POSTEMERGENCE, Rate 2 g/ha) was 20 and the “Plant response rating, Corn” value ([7]; PREEMERGENCE) was 0. The “Plant response rating (0 to 100), Corn” value ([7]; PREEMERGENCE, Rate 2 g/ha) was 0, the “Plant response rating (0 to 100), Corn” value ([7]; Rate 8 g/ha, POSTEMERGENCE) was 30 and the “Plant response rating (0 to 100), Corn” value ([7]; Rate 8 g/ha, PREEMERGENCE) was 0. The “Plant response rating (0 to 100), Corn” value ([7]; Rate 31 g/ha, POSTEMERGENCE) was 40, the “Plant response rating (0 to 100), Corn” value ([7]; Rate 31 g/ha, PREEMERGENCE) was 0 and the “Plant response rating, Morningglory” value ([8]; POSTEMERGENCE) was 100. For the same compound, the “Plant response rating (0 to 100), Morningglory” value ([8]; POSTEMERGENCE, Rate 2 g/ha) was 20, the “Plant response rating, Morningglory” value ([8]; PREEMERGENCE) was 0 and the “Plant response rating (0 to 100), Morningglory” value ([8]; PREEMERGENCE, Rate 2 g/ha) was 0. The “Plant response rating (0 to 100), Morningglory” value ([8]; Rate 8 g/ha, POSTEMERGENCE) was 30, the “Plant response rating (0 to 100), Morningglory” value ([8]; Rate 8 g/ha, PREEMERGENCE) was 0 and the “Plant response rating (0 to 100), Morningglory” value ([8]; Rate 31 g/ha, POSTEMERGENCE) was 50. For the same compound, the “Plant response rating (0 to 100), Morningglory” value ([8]; Rate 31 g/ha, PREEMERGENCE) was 0, the “Plant response rating, Wheat” value ([9]; POSTEMERGENCE) was 50 and the “Plant response rating (0 to 100), Wheat” value ([9]; POSTEMERGENCE, Rate 2 g/ha) was 10. For the same compound, the “Plant response rating, Wheat” value ([9]; PREEMERGENCE) was 60, the “Plant response rating (0 to 100), Wheat” value ([9]; PREEMERGENCE, Rate 2 g/ha) was 0 and the “Plant response rating (0 to 100), Wheat” value ([9]; Rate 8 g/ha, POSTEMERGENCE) was 20. For the same compound, the “Plant response rating (0 to 100), Wheat” value ([9]; Rate 8 g/ha, PREEMERGENCE) was 0, the “Plant response rating (0 to 100), Wheat” value ([9]; Rate 31 g/ha, POSTEMERGENCE) was 30 and the “Plant response rating (0 to 100), Wheat” value ([9]; Rate 31 g/ha, PREEMERGENCE) was 0. For the same compound, the “Plant response rating, Wild buckwheat” value ([10]; POSTEMERGENCE) was 100, the “Plant response rating, Wild buckwheat” value ([10]; PREEMERGENCE) was 100 and the “Plant response rating (0 to 100), Wild buckwheat” value ([10]; PREEMERGENCE, Rate 2 g/ha) was 0. The “Plant response rating (0 to 100), Wild buckwheat” value ([10]; Rate 8 g/ha, POSTEMERGENCE) was 40, the “Plant response rating (0 to 100), Wild buckwheat” value ([10]; Rate 8 g/ha, PREEMERGENCE) was 0 and the “Plant response rating (0 to 100), Wild buckwheat” value ([10]; Rate 31 g/ha, POSTEMERGENCE) was 80. The “Plant response rating (0 to 100), Wild buckwheat” value ([10]; Rate 31 g/ha, PREEMERGENCE) was 10, the “Plant response rating, Wild oat” value ([11]; POSTEMERGENCE) was 60 and the “Plant response rating (0 to 100), Wild oat” value ([11]; POSTEMERGENCE, Rate 2 g/ha) was 10. The “Plant response rating, Wild oat” value ([11]; PREEMERGENCE) was 20, the “Plant response rating (0 to 100), Wild oat” value ([11]; PREEMERGENCE, Rate 2 g/ha) was 0 and the “Plant response rating (0 to 100), Wild oat” value ([11]; Rate 8 g/ha, POSTEMERGENCE) was 20. For the same compound, the “Plant response rating (0 to 100), Wild oat” value ([11]; Rate 8 g/ha, PREEMERGENCE) was 0, the “Plant response rating (0 to 100), Wild oat” value ([11]; Rate 31 g/ha, POSTEMERGENCE) was 30 and the “Plant response rating (0 to 100), Wild oat” value ([11]; Rate 31 g/ha, PREEMERGENCE) was 0. The “Plant response rating (0 to 100), Rice Japonica” value ([12]; POSTEMERGENCE section, flood test, Rate 2 g/ha) was 0, the “Plant response rating (0 to 100), Rice Japonica” value ([12]; Rate 8 g/ha, under POSTEMERGENCE head (flood test species)) was 20 and the “Plant response rating (0 to 100), Rice Japonica” value ([12]; Rate 31 g/ha, under POSTEMERGENCE head (flood test species)) was 45. The “Plant response rating Rice Japonica” value ([12]; flood test species listed under POSTEMERGENCE, 125 g/ha, 0 to 100 scale) was 60.
